From US12435080B2, “sGC stimulators” (Tisento Therapeutics Inc., priority 2016, dated 2025) come the findings set out here.

Several values for one entry are separate records, joined by “and”; a condition that tells them apart may be missing. Equal values may be shown once. Read-outs that look alike come from different tables or passages of the source. Where only a bound is given, the exact number is not on record here.

This test concerns the target T1, sGC enzyme (Homo sapiens, UniProt Q02108+Q02153).
T1 construct: incorporated into these cells detect cGMP formed by the compounds stimulating the sGC enzyme; host or cells: HEK293 cells stably expressing GloSensor 40F cGMP biosensor
T1 sequence (Q02153 1-619): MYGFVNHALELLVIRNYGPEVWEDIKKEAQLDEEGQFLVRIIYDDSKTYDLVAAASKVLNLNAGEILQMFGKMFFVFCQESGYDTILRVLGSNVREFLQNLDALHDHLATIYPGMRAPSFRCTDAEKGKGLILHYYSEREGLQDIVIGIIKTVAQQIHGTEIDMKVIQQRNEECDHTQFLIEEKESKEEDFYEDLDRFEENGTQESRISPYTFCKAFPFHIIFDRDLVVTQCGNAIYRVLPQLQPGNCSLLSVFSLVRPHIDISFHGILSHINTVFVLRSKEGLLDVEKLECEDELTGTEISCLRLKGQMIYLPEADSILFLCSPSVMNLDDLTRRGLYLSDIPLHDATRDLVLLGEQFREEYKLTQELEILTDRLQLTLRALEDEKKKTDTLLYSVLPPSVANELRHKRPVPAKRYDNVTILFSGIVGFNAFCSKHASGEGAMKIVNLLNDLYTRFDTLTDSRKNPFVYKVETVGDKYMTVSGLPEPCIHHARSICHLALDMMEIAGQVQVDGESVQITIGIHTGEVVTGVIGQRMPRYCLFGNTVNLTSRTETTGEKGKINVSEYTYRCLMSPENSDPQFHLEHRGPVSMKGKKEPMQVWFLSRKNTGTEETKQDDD
T1 sequence (Q02108 1-690): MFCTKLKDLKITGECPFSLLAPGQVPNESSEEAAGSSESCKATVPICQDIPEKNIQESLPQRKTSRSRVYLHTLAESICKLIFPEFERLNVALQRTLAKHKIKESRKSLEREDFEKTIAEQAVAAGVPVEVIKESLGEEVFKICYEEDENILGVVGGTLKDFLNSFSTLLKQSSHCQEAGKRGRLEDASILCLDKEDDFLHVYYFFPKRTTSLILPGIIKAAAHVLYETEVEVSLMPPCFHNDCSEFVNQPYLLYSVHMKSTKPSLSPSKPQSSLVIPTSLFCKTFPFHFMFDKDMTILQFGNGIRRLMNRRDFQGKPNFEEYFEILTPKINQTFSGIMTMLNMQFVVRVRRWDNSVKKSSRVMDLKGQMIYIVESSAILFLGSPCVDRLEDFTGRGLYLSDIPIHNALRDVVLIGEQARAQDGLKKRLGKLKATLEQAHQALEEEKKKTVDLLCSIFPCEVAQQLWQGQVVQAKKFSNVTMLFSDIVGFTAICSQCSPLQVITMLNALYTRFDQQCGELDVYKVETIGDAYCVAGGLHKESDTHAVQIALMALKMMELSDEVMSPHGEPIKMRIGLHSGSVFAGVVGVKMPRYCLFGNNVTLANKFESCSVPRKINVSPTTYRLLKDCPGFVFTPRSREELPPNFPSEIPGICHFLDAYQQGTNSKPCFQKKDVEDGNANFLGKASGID
Put plainly: cGMP GloSensor cell-based assay, 384-well format. Conditions: HEK293 cells expressing GloSensor 40F cGMP, 10 μM DETA-NONOate, normalized to 30 μM Compound Y. The source says:
Human embryonic kidney cells (HEK293) cells expressing GloSensor™ 40F cGMP (Part No: CS182801, Promega) were used to evaluate the activity of test compounds. The luminescent biosensors (engineered luciferase) that were incorporated into these cells detect cGMP formed by the compounds stimulating the sGC enzyme and emit luminescence.
cGMP GloSensor cells were maintained in Dulbecco's Modification of Eagle's Medium (DMEM) supplemented with fetal bovine serum (FBS, 10% final) and hygromycine (200 ug/ml). […] Cells were incubated overnight at 37° C. in a humidified chamber with 5% CO2. The next day, medium was removed and cells were replaced with 40 ul/well of GloSensor™, 2 mM (Promega Cat No E1291). Cells were treated for 90 minutes at 25° C. to allow the substrate to equilibrate in the cells. […] For endpoint SAR screening, data were collected after 55 min incubation at room temperature.
Data were fit using a 4-parameter fit (log(agonist) vs. response—variable slope) using GraphPad Prism Software v.5. n=2 for all compounds. […] Compounds failing to elicit a minimum response of 50% are reported as >30 μM or ND.

The mark [1] stands for this setting: compounds in Table IA, read-out: Glo-sensor AbsEC50.
Setting [2] is: compounds in Table IB, read-out: Glo-sensor Abs EC50.

For the compound `Fc1ccccc1Cn1nc(-c2nc(C(F)(F)F)n[nH]2)c2ccnnc21` [Compound I-100, 1-(2-Fluorobenzyl)-3-(3-(trifluoromethyl)-1H-1,2,4-triazol-5-yl)-1H-pyrazolo[3,4-c]pyridazine], the EC50 under setting [1] fell in the range of 100 to 1000 nM.

Consider `Cc1ncc(Cc2nc(-c3nc(C(F)(F)F)n[nH]3)n3cc(F)ccc23)cn1` [Compound I-23, 6-Fluoro-1-((2-methylpyrimidin-5-yl)methyl)-3-(3-(trifluoromethyl)-1H-1,2,4-triazol-5-yl)imidazo[1,5-a]pyridine pyridine], for which the EC50 under setting [2] lay in the range of 100 to 1000 nM.

Take `Fc1ccccc1Cn1nc(-c2nc(Cn3ccnc3)n[nH]2)c2cccnc21` [Compound I-99, 3-(3-((1H-imidazol-1-yl)methyl)-1H-1,2,4-triazol-5-yl)-1-(2-fluorobenzyl)-1H-pyrazolo[3,4-b]pyridine]: the EC50 under setting [1] was in the range of 100 to 1000 nM.

In the case of `Fc1ccccc1Cn1nc(-c2nc(C(F)(F)F)n[nH]2)c2cnccc21` [Compound I-43, 1-(2-Fluorobenzyl)-3-(3-(trifluoromethyl)-1H-1,2,4-triazol-5-yl)-1H-pyrazolo[4,3-c]pyridine], the EC50 under setting [1] is over 1000 nM.

As to `Fc1ccccc1Cn1nc(-c2nc(C3CNC3)n[nH]2)c2cccnc21` [Compound I-73, 3-(3-(azetidin-3-yl)-1H-1,2,4-triazol-5-yl)-1-(2-fluorobenzyl)-1H-pyrazolo[3,4-b]pyridine], the EC50 under setting [1] is > 1000 nM and < 100 nM.

As to `C=COCc1n[nH]c(-c2nn(Cc3ccccc3F)c3ncccc23)n1` [Compound I-117], under setting [1], the EC50 was 100 to 1000 nM.

With `FC(F)c1n[nH]c(-n2nc(Cc3ccccc3)c3ncccc32)n1` [Compound I-129], the EC50 under setting [1] is over 1000 nM.

In the case of `Fc1ccccc1Cc1nc(-c2nc(C(F)(F)F)n[nH]2)n2ncccc12` [Compound I-24, 5-(2-Fluorobenzyl)-7-(3-(trifluoromethyl)-1H-1,2,4-triazol-5-yl)imidazo[1,5-b]pyridazine], under setting [2], the EC50 was over 1000 nM.

For `Cc1ncc(Cn2nc(-c3nc(C)n[nH]3)c3cccnc32)cn1` [Compound I-113, 3-(3-Methyl-1H-1,2,4-triazol-5-yl)-1-((2-methylpyrimidin-5yl)methyl)-1H-pyrazolo[3,4-b]pyridine], the EC50 under setting [1] is under 100 nM.

Turning to `COCCC(O)c1n[nH]c(-c2nn(Cc3ccccc3F)c3ncccc23)n1` (stereo not shown) [Compound I-116, 1-(5-(1-(2-fluorobenzyl)-1H-pyrazolo[3,4-b]pyridin-3-yl)-1H-1,2,4-triazol-3-yl)-3-methoxypropan-1-ol], the EC50 under setting [1] lay in the range of 100 to 1000 nM.

For the compound `Cc1ncc(Cc2nc(-c3nc(C(F)(F)F)n[nH]3)n3ccc(Cl)cc23)cn1` [Compound I-29, 7-Chloro-1-((2-methylpyrimidin-5-yl)methyl)-3-(3-(trifluoromethyl)-1H-1,2,4-triazol-5-yl)imidazo[1,5-a]pyridine], the EC50 under setting [2] lay within 100 to 1000 nM.

As to `FC(F)(F)c1n[nH]c(-c2nc(CCC(F)(F)C(F)(F)F)n3ncccc23)n1` [Compound I-18, 7-(3,3,4,4,4-pentafluorobutyl)-5-(3-(trifluoromethyl)-1H-1,2,4-triazol-5-yl)imidazo[1,5-b]pyridazine], the EC50 under setting [2] lay within 100 to 1000 nM.

For the compound `CCC(=O)c1n[nH]c(-c2nn(Cc3ccccc3F)c3ncccc23)n1` [Compound I-66], the EC50 under setting [1] was over 1000 nM.

Take `C=C(C)c1n[nH]c(-c2nn(Cc3ccccc3F)c3ncccc23)n1` [Compound I-55]: the EC50 under setting [1] was 100 to 1000 nM.

Consider `FC(F)(F)c1n[nH]c(-c2nn(Cc3cncnc3)c3cc(Cl)ccc23)n1` [Compound I-16, 6-Chloro-1-(pyrimidin-5-ylmethyl)-3-(3-(trifluoromethyl)-1H-1,2,4-triazol-5-yl)-1H-indazole], for which the EC50 under setting [1] is under 100 nM.

As to `Fc1ccccc1Cn1nc(-c2nc(C(F)(F)F)n[nH]2)c2ncccc21` [Compound I-35, 1-(2-Fluorobenzyl)-3-(3-(trifluoromethyl)-1H-1,2,4-triazol-5-yl)-1H-pyrazolo[4,3-b]pyridine], the EC50 under setting [1] is over 1000 nM.

For the compound `FC(F)(F)c1n[nH]c(-c2nc(Cc3cncnc3)c3ncccn23)n1` [Compound I-17], under setting [2], the EC50 is under 100 nM.

Take `FC(F)(F)c1n[nH]c(-n2nc(Cc3ccccc3)c3ncccc32)n1` [Compound I-128, 3-Benzyl-1-(3-(trifluoromethyl)-1H-1,2,4-triazol-5-yl)-1H-pyrazolo[4,3-b]pyridine]: the EC50 under setting [1] lay within 100 to 1000 nM.

For the compound `CN(C)C(=O)c1n[nH]c(-c2nn(Cc3ccccc3F)c3ncccc23)n1` [Compound I-74, 5-(1-(2-fluorobenzyl)-1H-pyrazolo[3,4-b]pyridin-3-yl)-N,N-dimethyl-1H-1,2,4-triazole-3-carboxamide], the EC50 under setting [1] lay in the range of 100 to 1000 nM.

Regarding `Fc1ccccc1Cn1nc(-c2nc(C3CC(F)(F)C3)n[nH]2)c2cccnc21` [Compound I-77, 3-(3-(3,3-Difluorocyclobutyl)-1H-1,2,4-triazol-5-yl)-1-(2-fluorobenzyl)-1H-pyrazolo[3,4-b]pyridine], the EC50 under setting [1] is 100 to 1000 nM.

In the case of `Cc1ncc(Cc2nc(-c3nc(C(F)(F)F)n[nH]3)n3cc(Cl)cc(F)c23)cn1` [Compound I-27, 6-Chloro-8-fluoro-1-((2-methylpyrimidin-5-yl)methyl)-3-(3-(trifluoromethyl)-1H-1,2,4-triazol-5-yl)imidazo[1,5-a]pyridine], the EC50 under setting [2] was over 1000 nM.

As to `Fc1ccccc1Cn1nc(-c2nc(C3(C(F)(F)F)CC3)n[nH]2)c2cccnc21` [Compound I-59, 1-(2-fluorobenzyl)-3-(3-(1-(trifluoromethyl)cyclopropyl)-1H-1,2,4-triazol-5-yl)-1H-pyrazolo[3,4-b]pyridine], the EC50 under setting [1] is 100 to 1000 nM.

For `Cc1ccc(Cn2nc(-c3nc(C(F)(F)F)n[nH]3)c3cccnc32)cc1` [Compound I-54, 1-(4-Methylbenzyl)-3-(3-(trifluoromethyl)-1H-1,2,4-triazol-5-yl)-1H-pyrazolo[3,4-b]pyridine], the EC50 under setting [1] is under 100 nM.

For the compound `Cc1ncc(Cn2nc(-c3nc(C(F)(F)F)n[nH]3)c3ncccc32)cn1` [Compound I-38], under setting [1], the EC50 is over 1000 nM.

As for `Fc1ccccc1Cn1nc(-c2nc(C3CC3)n[nH]2)c2cccnc21` [Compound I-68, 3-(3-Cyclopropyl-1H-1,2,4-triazol-5-yl)-1-(2-fluorobenzyl)-1H-pyrazolo[3,4-b]pyridine], the EC50 under setting [1] was under 100 nM.

As to `Cc1ncc(Cn2nc(-c3nc(C(F)(F)F)n[nH]3)c3ccc(F)cc32)cn1` [Compound I-61, 6-Fluoro-1-((2-methylpyrimidin-5-yl)methyl)-3-(3-(trifluoromethyl)-1H-1,2,4-triazol-5-yl)-1H-indazole], under setting [1], the EC50 is under 100 nM.

For the compound `Fc1ccccc1Cn1nc(-c2nc(CC(F)(F)F)n[nH]2)c2cccnc21` [Compound I-26, 1-(2-Fluorobenzyl)-3-(3-(2,2,2-trifluoroethyl)-1H-1,2,4-triazol-5-yl)-1H-pyrazolo[3,4-b]pyridine], the EC50 under setting [1] is under 100 nM.

With `Fc1cc(F)cc(Cn2nc(-c3nc(C(F)(F)F)n[nH]3)c3cccnc32)c1` [Compound I-51, 1-(3,5-Difluorobenzyl)-3-(3-(trifluoromethyl)-1H-1,2,4-triazol-5-yl)-1H-pyrazolo[3,4-b]pyridine], the EC50 under setting [1] was under 100 nM.
